Read-outs that look alike come from different tables or passages of the source.
Columns and labels:
[1] = target: anti-steroid antibodies; test: Competitive inhibition of binding of [3H]TA to rabbit anti-steroid antibodies (serum, affinity purified, Fab fragments)
Procedure: After incubating for 11/2 hrs at room temperature add 1 ml cold 5% charcoal/dextran (dil 1:40 with 0.1% gelatin in PBS). Let stand at 4° C. for 10 mins.

[2] = target: T1, partially purified glucocorticoid receptor (Rattus norvegicus, UniProt P06536); test: ELISA of 8G11-C6 binding to partially purified glucocorticoid receptor and its inhibition; details: ELISA (FIG. 13)
T1 sequence (P06536 1-795): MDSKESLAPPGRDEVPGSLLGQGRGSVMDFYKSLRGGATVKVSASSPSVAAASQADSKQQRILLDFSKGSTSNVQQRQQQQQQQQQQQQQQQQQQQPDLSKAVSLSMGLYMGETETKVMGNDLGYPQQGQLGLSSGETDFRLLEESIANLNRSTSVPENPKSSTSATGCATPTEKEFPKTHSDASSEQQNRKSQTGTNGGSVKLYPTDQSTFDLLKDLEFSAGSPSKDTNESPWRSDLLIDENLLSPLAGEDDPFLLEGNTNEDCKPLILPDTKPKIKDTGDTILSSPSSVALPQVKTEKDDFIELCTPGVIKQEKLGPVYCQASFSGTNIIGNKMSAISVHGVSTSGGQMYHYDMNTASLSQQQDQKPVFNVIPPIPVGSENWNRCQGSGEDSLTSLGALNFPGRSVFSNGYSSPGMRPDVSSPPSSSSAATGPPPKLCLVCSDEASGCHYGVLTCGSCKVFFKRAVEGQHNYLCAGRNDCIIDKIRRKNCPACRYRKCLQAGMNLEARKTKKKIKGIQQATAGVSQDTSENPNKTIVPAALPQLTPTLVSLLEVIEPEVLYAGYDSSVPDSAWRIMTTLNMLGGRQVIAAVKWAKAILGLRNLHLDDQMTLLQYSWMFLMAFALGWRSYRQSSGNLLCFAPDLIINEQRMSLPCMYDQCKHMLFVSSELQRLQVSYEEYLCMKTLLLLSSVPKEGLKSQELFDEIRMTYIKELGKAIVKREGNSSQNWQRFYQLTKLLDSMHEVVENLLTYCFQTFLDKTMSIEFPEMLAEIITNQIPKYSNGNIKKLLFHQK
Procedure: FIG. 12. […] 200 microliters containing either 1.08 micrograms ( ) or 0.54 micrograms ( ) of a partially purified receptor preparation in 0.1 M NaHCO3 were added to the wells of the polystyrene plastic and incubated overnight at 4° C. […] See methods section for the methodology employed.
FIG. 13. […] 200 microliters containing 0.54 micrograms protein of a partially purified receptor preparation in 0.1 M NaHCO3 pH 9.3 was added to the wells of polystyrene plates. These were incubated for 2 hrs at 37° C. Washed 2× with PBS containing 0.02% Tween. […] See methods for the methodology employed. The inhibitors used were triamcinolone acetonide ( ), rabbit serum albumin ( ) and triamcinolone-RSA ( ).

[3] = tested on: anti-steroid Fab fragments; test: ELISA of 8G11-C6 binding to anti-steroid Fab fragments and its inhibition; design: species or system rabbit; details: inhibitor pre-incubated (FIG. 9, 10)
Procedure: FIG. 9 and 10. […] Controls with no inhibitor were included. […] Blanks with only PBS were included as well. The inhibitors used in FIG. 9 were triamcinolone acetonide ( ), triamcinolone-RSA ( ) and rabbit serum albumin ( ).
FIG. 11. […] The method used was similar to that described in the experimental procedure. […] 200λ of the incubation mixture was then added to microtiter wells previously coated with 10 ng anti-steroid Fab fragments and incubated for 2 hrs at 37° C.
The presence of anti-idiotypic antibodies in the hybridoma culture medium were assayed by a double antibody sandwich ELISA. […] After washing twice with 0.01M phosphate buffer - 0.14M NaCl, pH 7.4, containing 0.05% Tween (PBS-tween), the culture medium from the hybridomas was added and incubated at 37° C. for 2 hrs. The wells were washed three times with PBS-tween and 200 microliters of 1:3,000 dilution in PBS-tween of goat anti-mouse IgM-IgG horseradish peroxidase (Tago) was added. After incubating 1 hr at 37° C., the wells were washed three times with PBS-tween and 200 microliters substrate (7 mg o-phenylenediamine dichloride in 10 ml 0.1 M citrate-phosphate buffer, pH 4.8 containing 5 microliters of 30% H2 O2) was added. Depending on the intensity of the color, the reaction was stopped after 5-10 min by the addition of 50 microliters 8N H2 SO4 and the OD determined (Titretek) at 492 nm.

[4] = target: anti-steroid Fab fragments; test: Scatchard analysis of tritiated steroid binding to Fab fragments of affinity purified anti-steroid antibodies; design: species or system rabbit; details: tritiated ligand, read-out: Kd for Fab fragments of the anti-steroid from Scatchard plots
Procedure: FIG. 5. Scatchard plot of the binding of [^3 H]triamcinolone acetonide to Fab fragments of affinity purified anti-steroid antibodies. Fab fragments (0.227 micrograms) were incubated with increasing concentrations of [^3 H]triamcinolone acetonide (0.4-62.5 nM) in the presence of 0.01M phosphate buffered saline pH 7.4 containing 0.1% gelatin in a total volume of 200 microliters. Total and non-specific binding (50 micromolar triamcinolone acetonide) were determined for each of the [^3 H]triamcinolone acetonide levels and all points were in duplicate. After incubating 1 hr at room temperature, add 1 ml cold 5% charcoal/dextran (diluted 1:40 in 0.01M PBS containing 0.1% gelatin) and let stand on ice for 10 min. Centrifuge down the charcoal/dextran, decant the supernatant into scintillation vials and determine the radioactivity.

[5] = target: T2, glucocorticoid receptor (Rattus norvegicus, UniProt P06536); test: biochemical
T2 sequence (P06536 1-795): T1 sequence (P06536 1-795)
Procedure: (§3) Incubate in a total volume of 500 microliters, for 2 hrs at 4° C., 20 mM HEPES buffer containing 50 mM NaCl, 1 mM EDTA, 10% glycerol 0.1 mM DTT pH 7.6, 10 nM [^3 H]TA and 200 microliters rat liver cytosol. Add 250 microliters 5% charcoal/dextran suspension and after 10 min centrifuge and determine the radioactivity in 200 λ aliquot.
(§4) The results tabulated in table I below represents the amount of unlabeled steroid that can displace 50% binding of 1×10^-8 M [^3 H]TA. Binding in the absence of competing steroid was taken as 100%.
(§5) Table I: Competitive inhibition of binding of [^3 H] triamcinolone to
(§6) glucocorticoid receptor included 100 ml of rat liver cytosol. 10^-8 M
(§7) [^3 H]TA and increasing concentrations of steroid in a total volume o
(§8) 200 ml. After incubating for 2 hrs at 4° C., 100 5%
(§9) charcoal/dextran was added. Let stand for 5 mins at 4° C. Make up
(§10) to 1 ml with PBS and after 5 mins centrifuge down charcoal. Decant
(§11) supernatant into scintillation vials. Add 10 ml hydrofluor and count.

[6] = target: T2, glucocorticoid receptor; test: Competitive inhibition of binding of [3H]triamcinolone acetonide to glucocorticoid receptor in rat liver cytosol; details: apparent Kd of the glucocorticoid receptor, competitive binding with [3H]TA as tracer (FIG. 6, Table I)
Procedure: as §3, §4, §5, §6, §7, §8, §9, §10, §11

[7] = target: T3, Torpedo AChR (Tetronarce californica, UniProt P02710+P02714+P02718); test: Enzyme immunoassay of F8-D5 binding to Torpedo AChR and its inhibition
T3 construct: purified Torpedo AChR preparation; from tissue; host or cells: Torpedo electric organ (inferred, the usual source of purified Torpedo receptor)
T3 sequence (P02710 25-461): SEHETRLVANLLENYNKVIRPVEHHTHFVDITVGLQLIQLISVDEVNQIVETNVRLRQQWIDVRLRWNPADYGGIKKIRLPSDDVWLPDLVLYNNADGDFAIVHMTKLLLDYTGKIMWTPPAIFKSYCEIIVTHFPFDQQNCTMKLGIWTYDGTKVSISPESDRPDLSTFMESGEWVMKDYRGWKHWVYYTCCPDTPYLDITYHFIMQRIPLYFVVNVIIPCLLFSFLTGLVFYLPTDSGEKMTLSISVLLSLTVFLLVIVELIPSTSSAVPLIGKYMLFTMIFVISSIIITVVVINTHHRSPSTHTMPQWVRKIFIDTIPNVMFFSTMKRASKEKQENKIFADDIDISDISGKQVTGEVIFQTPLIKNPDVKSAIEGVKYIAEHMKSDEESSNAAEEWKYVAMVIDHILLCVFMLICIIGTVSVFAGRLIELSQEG
T3 sequence (P02712 25-493 partner): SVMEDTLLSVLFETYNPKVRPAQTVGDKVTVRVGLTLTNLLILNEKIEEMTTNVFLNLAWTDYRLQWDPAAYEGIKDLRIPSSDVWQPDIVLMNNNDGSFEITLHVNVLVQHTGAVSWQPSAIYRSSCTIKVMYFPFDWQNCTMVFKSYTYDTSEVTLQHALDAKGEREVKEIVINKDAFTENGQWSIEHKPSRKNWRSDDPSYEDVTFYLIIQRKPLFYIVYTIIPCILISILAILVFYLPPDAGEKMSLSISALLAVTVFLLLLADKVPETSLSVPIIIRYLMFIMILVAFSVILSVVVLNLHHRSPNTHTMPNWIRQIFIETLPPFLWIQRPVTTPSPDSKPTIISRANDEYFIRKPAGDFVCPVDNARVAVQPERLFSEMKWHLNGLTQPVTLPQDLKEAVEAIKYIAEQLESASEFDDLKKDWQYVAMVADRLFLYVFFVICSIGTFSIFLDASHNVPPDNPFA
T3 sequence (P02714 18-506): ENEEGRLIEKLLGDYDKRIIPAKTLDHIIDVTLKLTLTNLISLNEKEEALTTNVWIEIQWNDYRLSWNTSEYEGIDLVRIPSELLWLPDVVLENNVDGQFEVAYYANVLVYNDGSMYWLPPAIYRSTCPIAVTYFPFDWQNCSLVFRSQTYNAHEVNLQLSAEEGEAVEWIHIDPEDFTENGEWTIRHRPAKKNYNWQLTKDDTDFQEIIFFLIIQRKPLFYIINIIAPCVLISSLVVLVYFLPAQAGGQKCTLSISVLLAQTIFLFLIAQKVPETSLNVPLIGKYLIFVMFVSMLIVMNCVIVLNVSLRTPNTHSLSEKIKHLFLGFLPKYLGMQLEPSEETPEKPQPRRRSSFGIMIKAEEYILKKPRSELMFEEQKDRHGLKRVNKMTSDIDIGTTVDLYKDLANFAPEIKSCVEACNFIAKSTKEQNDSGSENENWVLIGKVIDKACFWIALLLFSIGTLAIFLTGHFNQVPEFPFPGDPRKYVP
T3 sequence (P02718 22-522): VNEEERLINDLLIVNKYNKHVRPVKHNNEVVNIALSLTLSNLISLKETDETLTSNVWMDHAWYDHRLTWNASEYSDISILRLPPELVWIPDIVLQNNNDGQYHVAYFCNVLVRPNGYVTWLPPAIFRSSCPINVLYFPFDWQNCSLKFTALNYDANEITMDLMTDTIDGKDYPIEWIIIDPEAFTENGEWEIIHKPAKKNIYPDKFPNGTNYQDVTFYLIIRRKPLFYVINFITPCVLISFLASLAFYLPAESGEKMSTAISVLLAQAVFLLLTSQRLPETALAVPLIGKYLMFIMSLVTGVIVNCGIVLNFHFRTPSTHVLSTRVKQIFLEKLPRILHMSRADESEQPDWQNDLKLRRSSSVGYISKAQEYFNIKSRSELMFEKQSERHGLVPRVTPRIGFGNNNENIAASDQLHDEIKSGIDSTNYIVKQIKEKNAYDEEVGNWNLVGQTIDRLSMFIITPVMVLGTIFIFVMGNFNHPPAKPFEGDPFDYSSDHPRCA
Procedure: (§1) Wells of polystyrene plates (Corning) were then coated with 150 microliters of either 400 ng/ml purified rabbit anti-BisQ (1) in 0.1 M NaHCO3, pH 9.3, or […] purified Torpedo receptor in the same buffer. Coating was accomplished by incubating for 2 h at 37° C. After two washings with 0.01 M phosphate buffer:0.14 M NaCl, pH 7.2, containing 0.05% v/v Tween-20 (PBS-Tween), the wells were exposed to the various concentrations of F8-D5 in PBS-Tween. After incubation at 37° C. for 2h, the wells were washed three times with PBS-Tween and then filled with 200 microliters of 1:1,000 dilution in PBS-Tween of goat anti-mouse immunoglobulin labeled with horseradish -peroxidase (Sigma). After incubation at 37° C. for 1 h, the wells were washed three times with PBS-Tween. Peroxidase was assayed by incubation with o-phenylenediamine dihydrochloride (7 mg in 10 ml 0.1 M citrate-phosphate buffer, pH 4.8, containing 5 microliters of 30% H2 O2) for 10 min. The reaction was stopped with 50 microliters per well of 4 M H2 SO4 and the color read at 492 nm in a Multiskan Titertek apparatus. Values were corrected for a PBS blank which was never higher than 0.150. (The above conditions were not chosen for optimal sensitivity but for speed and convenience.)
(§2) To confirm that the same monoclonal antibody bound receptor and anti-BisQ, reciprocal inhibition experiments were carried. […]

[8] = target: rabbit anti-BisQ; test: Enzyme immunoassay of F8-D5 binding to rabbit anti-BisQ and its inhibition; details: read-out: concentration giving 50% inhibition of binding of F8-D5 to rabbit anti-BisQ; stated as a similar concentration
Procedure: as §1, §2

[9] = affinity purified anti-steroid 1.3 micrograms, 1×10^-8 M [3H]TA, read-out: Affinity purified anti-steroid: amount of unlabeled steroid that can displace 50% binding of [3H]TA
[10] = anti-steroid Fab fragments 0.18 micrograms, 1×10^-8 M [3H]TA, read-out: Rabbit serum 541 Fab fragments: amount of unlabeled steroid that can displace 50% binding of [3H]TA
[11] = unprocessed rabbit serum 540 dil 1:1000, 1×10^-8 M [3H]TA, read-out: Rabbit Serum 540 Unprocessed: amount of unlabeled steroid that can displace 50% binding of [3H]TA
[12] = unprocessed rabbit serum 540 dil 1:1000, 1×10^-8 M [3H]TA

`CC(=O)[C@H]1CC[C@H]2[C@@H]3CCC4=CC(=O)CC[C@]4(C)[C@H]3CC[C@]12C` [Progesterone] was tested, and the IC50 [1, 9] was 100000 nM, the IC50 [1, 10] was 100000 nM and the IC50 [1, 11] was 100000 nM.
In the case of `C[C@]12CC[C@@H]3c4ccc(O)cc4CC[C@H]3[C@@H]1CC[C@@H]2O` [estradiol-17β], the “effect on the binding of 8G11-C6 to partially purified glucocorticoid receptor” value [2] is reported as “no effect” and the “effect on the binding of 8G11-C6 to anti-steroid Fab fragments” value (shortened to “effect … to anti-steroid Fab fragments”) [3] is reported as “slight activation of binding”.
In the case of `C[C@]12CCC(=O)C[C@@H]1CC[C@@H]1[C@@H]2CC[C@]2(C)[C@@H](O)CC[C@@H]12` [Dihydrotestosterone], the “Rabbit Serum 540 Unprocessed: amount of unlabeled steroid that can displace 50% binding of [3H]TA” value [1, 12] is reported as “no effect”.
In the case of “rabbit serum albumin: carrier protein tested alone as inhibitor”, the “effect … to anti-steroid Fab fragments” value [3] is reported as “did not affect”.
`C[C@@H]1C[C@H]2[C@@H]3CCC4=CC(=O)C=C[C@]4(C)[C@@]3(F)[C@@H](O)C[C@]2(C)[C@@]1(O)C(=O)CO` [Dexamethasone] gave a Kd [4] of 150 nM, an IC50 [1, 9] of 620 nM and an IC50 [1, 10] of 630 nM. It also gave an IC50 [1, 11] of 120 nM.
For `C[C@]12C=CC(=O)C=C1CC[C@H]1[C@@H]3C[C@@H](O)[C@](O)(C(=O)CO)[C@@]3(C)C[C@H](O)[C@@]12F` [Triamcinolone, 9-fluoro-11β, α16 , 17, 21-tetrahydroxypregna-1,4-diene-3, 20-dione], the IC50 [1, 9] was 15 nM, the IC50 [1, 10] was 15 nM and the IC50 [1, 11] was 3.2 nM. For the same compound, the IC50 [5] was 5 nM and the “effect … to anti-steroid Fab fragments” value [3] was “slight activation of binding”.
For `C[C@]12CC[C@H]3[C@@H](CCC4=CC(=O)CC[C@@]43C)[C@@H]1CC[C@@H]2O` [Testosterone], the “effect on the binding of 8G11-C6 to partially purified glucocorticoid receptor” value [2] was “only a slight inhibitory effect”, the “Affinity purified anti-steroid: amount of unlabeled steroid that can displace 50% binding of [3H]TA” value ([1]; affinity purified anti-steroid 1.3 micrograms, 1×10^-8 M [3H]TA) was “not inhibited” and the “Rabbit serum 541 Fab fragments: amount of unlabeled steroid that can displace 50% binding of [3H]TA” value ([1]; anti-steroid Fab fragments 0.18 micrograms, 1×10^-8 M [3H]TA) was “not inhibited”. The “Rabbit Serum 540 Unprocessed: amount of unlabeled steroid that can displace 50% binding of [3H]TA” value [1, 12] was “not inhibited” and the “effect … to anti-steroid Fab fragments” value [3] was “slight activation of binding”.
`C[C@]12C[C@H](O)[C@H]3[C@@H](CCC4=CC(=O)CC[C@@]43C)[C@@H]1CC[C@@H]2C(=O)CO` [Corticosterone] gave an IC50 [1, 9] of 100000 nM, an IC50 [1, 10] of 100000 nM and an IC50 [1, 11] of 6300 nM.
Compound `CC1(C)O[C@@H]2C[C@H]3[C@@H]4CCC5=CC(=O)C=C[C@]5(C)[C@@]4(F)[C@@H](O)C[C@]3(C)[C@]2(C(=O)CO)O1` [triamcinolone acetonide] has a Kd ([1]; competitive binding with [3H]TA as tracer (FIG. 6, Table I), read-out: apparent Kd of the anti-steroid in unprocessed rabbit serum) of 3.2 nM, a Kd [6] of 5 nM and a Kd [5] of 15 nM. The “effect … to anti-steroid Fab fragments” value [3] was “did not affect”.
`C[N+](C)(C)Cc1cccc(/N=N/c2cccc(C[N+](C)(C)C)c2)c1` [BisQ, trans-3,3'-bis(α-trimethylammonium)azotoluene] was tested, and the IC50 [7] was 40000 nM and the IC50 [8] was roughly 40000 nM.
`C[C@]12CCC(=O)C=C1CC[C@@H]1[C@@H]2[C@@H](O)C[C@@]2(C)[C@H]1CC[C@]2(O)C(=O)CO` [Hydrocortisone] gave an IC50 [1, 9] of 100000 nM, an IC50 [1, 10] of 100000 nM and an IC50 [1, 11] of 5000 nM.

Reference: patent US5144010A, “Method of producing monoclonal auto-anti-idiotypic antibodies” (The Trustees of Columbia University in the City of New York, priority 1989, dated 1992)
